“Also recorded” adds a separate entry of the source. Read-outs that look alike come from different tables or passages of the source.
Assays:
[1] = Photosensitivity of pluripotent stem cells, cobblestone area forming cell (CAFC) assay; assay type: cell-based, murine; settings: mouse, bone marrow stem cells, 15 nM
Excerpt: (§1) Animals. C57B1/6 (Ly-5.2) and B6SJ-cd45 ^b pep 3^b /BOY J (Ly-5.1), were obtained from The Jackson Laboratories (Bar Harbor, Me.) and were maintained in the animal facility of the New York Blood Center. After gamma-irradiation, the animals were housed in microisolator cages and provided with autoclaved food and autoclaved acidified water (pH=3) ad libitum. Preparation of bone marrow cell suspensions--Ly-5.1 mice were used as the source of donor BM. Mice (8-10 weeks old) were killed and the BM was harvested by flushing the femoral shafts with Hank's balanced salt solution (HBSS), pH 7.4. The cell suspensions were centrifuged, washed once and the cells were finally resuspended in HBSS--10% vol/vol fetal bovine serum (FBS, Gemini Bioproducts Inc., Calabasas, Calif.).
(§2) Photosensitization. Aliquots of a 1.87 mM Pc 4 (kindly provided by Dr. M. E. Kenney) stock solution in dimethyl sulfoxide were kept at -80° C. in autoclaved brown glass vials. Immediately prior to the photosensitization, Pc4 was thawed and diluted in dimethyl formamide to yield a 10 μM working solution. […] Pc 4 was used at 15 nM throughout the experiments.
(§3) BM and cell line samples, were incubated with 15 nM Pc 4 for two hours at 37° C. at cell concentrations of 1.5×10^7 cells/mL. Aliquots of 1.5 mL were transferred to 24-well plates; separate plates were used for each sample.
(§4) In a second set of experiments, the cells were incubated with 15 nM Pc 4 at cell concentrations of 1.5×10^6 cells/mL. Prior to photoirradiation, the samples were centrifuged and the supernatants were aspirated and set aside. The cell concentrations were adjusted to 1.5×10^7 cells/mL by adding back an appropriate volume of the Pc 4 containing aspirates.
(§5) Photoinactivation. The light source used was a filtered xenon short arc lamp (Versa-Light, Model UV-R6G, Medic Lightech, Ltd., Haifa, Israel). It was used to deliver red light (λ 600-700 nm) to the sensitized cells. After a 20 minute warm up period of the instrument, the distance from the light source to the bottom of the 24-well plate was adjusted to obtain a fluence rate of 26.6 mW/cm^2, as measured with a radiometer (Model IL 1350, International Light, Newburyport, Mass.). Samples were placed under the light source and were stirred during the irradiations. Before and after the irradiations, samples were kept in the dark.
(§6) Cobblestone area forming cell assay. FBMD-1 stromal cells (gift from Dr. Ploemacher) were cultured at 33° C. in a humidified 5% CO2 -incubator in DMEM supplemented with 3.5 mM HEPES, 2 mM glutaMax (GibcoBRL), 10^-7 M sodium selenite, 10^-4 M β-mercaptoethanol, 10% vol/vol fetal calf serum (Gemini Bioproducts, Inc.), 5% vol/vol horse serum and 10^-5 M hydrocortisone 21-hemisuccinate (Breems, D. A., et al. Leukemia 8:1095 (1994); Van der Loo, J. C. M., et al. Blood 85:2598 (1995)). Prior to each experiment, FBMD-1 cells were harvested from log-phase cultures and fresh layers were prepared by seeding 1,000 cells into individual wells of 96-well flat bottom plates. These plates had been incubated overnight with 0.2% (wt/vol) gelatin to improve adherence of the stromal layer. The outer wells of the plates were filled with 100 μL 0.1 N NaOH to reduce infection.
(§7) The FBDM-1 layers were overlaid with the bone marrow samples in a limiting dilution setup; the first wells receiving 180,000-300,000 cells (Breems, D. A., et al., supra). Ten dilutions 2-fold apart were used for each sample with 18 replicate wells per dilution. The cells were cultured at 33° C. in a humidified 5% CO2 -incubator. For each sample, the fraction of wells with at least one phase-dark hematopoietic clone of at least five cells (cobblestone area) was determined weekly and cobblestone area forming cell frequencies (CAFC) were calculated using the dedicated Poison statistics program LimDil (kindly provided by Dr. Jan Hendrikx). After counting, 100 μL medium was removed from the wells and replaced with 100 μL fresh medium.
(§8) Statistics. […]

pluripotent stem cells = assay: as above; assay type: cell-based, murine
Excerpt: as §1, §2, §3, §4, §5, §6, §7, §8

## CN(C)CCC[Si](C)(C)O[Si]1(O)n2c3c4ccccc4c2N=C2N=C(N=c4c5ccccc5c(n41)=NC1=NC(=N3)c3ccccc31)c1ccccc12 (centres unmarked) [Pc 4, hydroxysiloxy-dimethylpropyl-N-dimethyl silicon phthalocyanine]
[1]; 1.5×10^6 cells/mL, 3 J/cm^2, two values, read-out: relative CAFC day 28 frequency
  viability at 672 h, 0.015 µM: 1.8%
[1]; 1.5×10^7 cells/mL, 18 J/cm^2, two assays (p=0.69, p=0.78), read-out: relative CAFC frequency on day 28
  viability at 672 h, 0.015 µM: 91%
Pluripotent stem cells; 15 nM, 1.5×10^6 cells/mL, 3 J/cm^2, two values, 40320 min, 0.015 µM
  relative CAFC day 28 frequency: < 0.014
Pluripotent stem cells; 15 nM, 1.5×10^7 cells/mL, 6 J/cm^2 (p=0.58)
  CAFC frequency compared with untreated samples: not significantly lower
Pluripotent stem cells; 15 nM, 1.5×10^7 cells/mL, 12 J/cm^2 (p=0.40)
  CAFC frequency compared with untreated samples: not significantly lower
Pluripotent stem cells; 15 nM, 1.5×10^7 cells/mL, 18 J/cm^2 (p=0.26)
  CAFC frequency compared with untreated samples: not significantly lower
Pluripotent stem cells; 15 nM, 1.5×10^7 cells/mL, 18 J/cm^2, two assays (p=0.69, p=0.78), 40320 min, 0.015 µM
  relative CAFC frequency on day 28: 0.92
Pluripotent stem cells; 15 nM, 1.5×10^7 cells/mL, after irradiation
  effect on CAFC frequencies / pluripotent stem cells: not affected after irradiation; also recorded: not damaged
Pluripotent stem cells; 1.5×10^6 cells/mL
  photoinactivation of the stem cells (CAFC): approximately 2 log10
Pluripotent stem cells; 1.5×10^7 cells/mL, vs Sieber (1987)
  comparison with MC 540: compared favorable to MC 540
Pluripotent stem cells; relative to other cell types
  sensitivity of c-kit^+,Sca-1^+ BM fraction to photoinactivation: least sensitive

Source: patent publication US6159733A, “Method for photoinactivating malignant cells” (priority 1996, dated 2000)
